Results: the NIST ThermoML archive (doi:10.1021/je049913p)
Numbers after ± are expanded uncertainties.

What was measured:
[1] = Crystal; Adiabatic calorimetry
[2] = Molar enthalpy of transition or fusion; details: Crystal; Adiabatic calorimetry

Triple point temperature [1]: 544.56 ± 0.005 K | Molar enthalpy of transition or fusion [2]: 2.655 ± 0.00406 kcal/mol
Structure (SMILES): [Bi] [bismuth]
